Measurements reported in patent publication US5654296A, “Condensed heterocyclic compounds, their production and use” (priority 1994, dated 1997).
Structures can show the parent of a compound that is named as a salt.

Legend:
[1] = test system: 45Ca2+ uptake (veratrine-stimulated, rat cerebral cortex crude synaptosome fraction); assay: 45Ca2+ uptake inhibition experiment; type: biochemical; details: 30 μM veratrine, 37° C., 10 minutes, read-out: 45Ca2+ uptake inhibitory activity (IC50 μM)
Description: The rat cerebral cortex was homogenized in 10 volumes of ice-cooled 0.32M sucrose solution to prepare a crude synaptosome fraction (100×G, 10 min., 12000×G, 20 min.). […] To 900 μl of the homogenate was added a DMSO solution of the test drug (10 μl). The mixture was incubated at 37° C. for 10 minutes, followed by addition of 100 μl of a veratrine solution (containing 0.18 uci ^45 Ca^2+) at a final veratrine concentration of 30 μM. The mixture was incubated at 37° C. for 10 minutes, quenched with 4 ml of ice-cooled EGTA solution (120 mM sodium chloride, 5 mM potassium chloride, 5 mM EGTA, pH=7.5) and suction-filtered using a GF/B filter. The filter was washed twice with 4 ml each of a washing solution (132 mM sodium chloride, 5 mM potassium chloride, 1.3 mM magnesium chloride, 1.2 mM calcium, chloride, 20 mM Tris base, pH 7.5) and the radioactivity of […] was measured by the liquid scintillation method.
The ^45 Ca^2+ uptake inhibition rate was calculated by means of the following equation. [formula] A: The ^45 Ca^2+ uptake after 10 minutes' stimulation with 30 μM veratrine in the presence of the test drug
B: The ^45 Ca^2+ uptake in the absence of veratrine and in the presence of the test drug
C: The ^45 Ca^2+ uptake after 10 minutes' stimulation with 30 μM veratrine in the absence of the test drug
D: The ^45 Ca^2+ uptake in the absence of the test drug and in the absence of veratrine

[2] = test system: serotonine (5-HT) uptake; assay: Activity to inhibit serotonine (5-HT) uptake; type: biochemical; details: rat whole brain; 3H-5-HT 10 nM; 37° C.; pH 7.4; read-out: 5-HT uptake inhibitory activity (IC50 μM)
Description: (a) Activity to inhibit serotonine (5-HT) uptake
The experiment was performed in accordance with the method of Hyttel et al. [Psychopharmacology 60, 13, 1978]. The whole brain of a rat was homogenized in 40 volumes of ice-cooled 0.32M sucrose solution containing 10 μM pargyline and, then, centrifuged (600×G) for 10 minutes. The supernatant was centrifuged (2500×G) for 55 minutes to provide a pellet. This pellet was suspended in Krebs-Ringer-phosphate buffer (pH 7.4; 122 mM NaCl, 4.82 mM KCl, 0.972 mM CaCl2, 1.21 mM MgSO4, 12.7 mM Na2 HPO4, 2.97 mM NaH2 PO4, 0.162 mM EDTA sodium, 10 mM glucose, 1.14 mM ascorbic acid) saturated with a mixed gas (95% O and 5% CO2). To 900 μl of this suspention was added a solution of the test drug (10 μl) in DMSO and the mixture was incubated at 37° C. for 5 minutes. Then, 100 μl of ^3 H-5-HT (final concentration 10 nM) was added and the mixture was further incubated at 37° C. for 5 minutes. This reaction mixture was filtered under suction using a GF/B filter and the filter was washed with 4 ml of the above-mentioned buffer. The radioactivity on the filter was measured by the liquid scintillation method.
The amount of the drug which caused a 50% decrease in 5-HT uptake is shown as 50% inhibitory activity (IC50) in Table 42.

[3] = target: T1, GnRH receptors (bovine pituitary anterior lobe membrane fraction) (Bos taurus, UniProt P32236); assay: 125I-leuprolerin GnRH receptor binding inhibition test, bovine pituitary anterior lobe membrane fraction; details: 4° C., 90 minutes, read-out: Binding inhibitory activity (IC50 μM) Bovine
T1 construct: A bovine pituitary anterior lobe membrane fraction containing GnRH receptors was prepared; from tissue; host or cells: bovine pituitary anterior lobe, membrane fraction
T1 sequence (P32236 1-328): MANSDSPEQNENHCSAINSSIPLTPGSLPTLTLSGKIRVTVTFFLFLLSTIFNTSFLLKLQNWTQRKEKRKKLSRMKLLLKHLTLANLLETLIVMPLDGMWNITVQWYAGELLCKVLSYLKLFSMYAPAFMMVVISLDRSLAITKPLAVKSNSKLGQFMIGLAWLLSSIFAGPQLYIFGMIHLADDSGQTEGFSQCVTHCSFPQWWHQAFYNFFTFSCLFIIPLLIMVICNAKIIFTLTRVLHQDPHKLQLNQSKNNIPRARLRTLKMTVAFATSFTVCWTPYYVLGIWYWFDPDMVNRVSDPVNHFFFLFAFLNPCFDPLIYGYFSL
Description: Ten (10) μl of 3×10^4 M aqueous leuprolerin solution and 10 μl of 0.01 mg/ml lactoperoxidase were taken in a tube and 10 μl of Na^125 I solution (37 MBq) was added. After stirring, 10 μl of 0.001% H2 O2 was added and the reaction was conducted at room temperature for 20 minutes. Then, 700 μl of 0.05% TFA solution was added to the tube to terminate the reaction and the reaction mixture was purified by reverse-phase HPLC. The HPLC conditions are shown below. ^125 I-leuprolerin was eluted after a retention time of 26-27 minutes. (C) Preparation of a Bovine Pituitary Anterior Lobe Membrane Fraction Containing GnRH Receptors A bovine pituitary anterior lobe membrane fraction containing GnRH receptors was prepared by the same procedure as described under (B). However, a 10,000×G centrifugation supernatant was recentrifuged at 100,000×G for 1 hour to provide the membrane fraction pellet. […] For the rat and human membrane fractions prepared in (B) and (D), each membrane fraction was diluted with assay buffer to a concentration of 200 μg/ml and distributed in 188 μl portions into tubes. As to the bovine membrane fraction prepared in (C), the membrane fraction was diluted with assay buffer to 750 μg/ml and distributed in 188 μl portions into tubes. […] Where the rat or bovine pituitary anterior lobe membrane fraction was used, the reaction was conducted at 4° C. for 90 minutes. Where the membrane fraction of the CHO with human GnRH receptors expressed was used, the reaction was carried out at 25° C. for 60 minutes. […] After filtration, the radioactivity of ^125 I-leuprolerin remaining on the filter was measured with a γ-counter. The expression (TB-SB)/(TB-NSB)×100 (where SB=radioactivity with the compound added, TB=maximum bound radioactivity, NSB=nonspecifically bound radioactivity) was calculated to find the binding inhibition rate of each test compound.

[4] = target: T2, GnRH receptors (rat pituitary anterior lobe membrane fraction) (Rattus norvegicus, UniProt P30969); assay: 125I-leuprolerin GnRH receptor binding inhibition test, rat pituitary anterior lobe membrane fraction; details: 4° C., 90 minutes, read-out: Binding inhibitory activity (IC50 μM) Rat
T2 construct: the anterior lobe of the pituitary gland was isolated and washed with ice-cooled homogenate buffer; from tissue; host or cells: anterior lobe of the pituitary gland, male Wistar rats (8 weeks old), membrane fraction
T2 sequence (P30969 1-327): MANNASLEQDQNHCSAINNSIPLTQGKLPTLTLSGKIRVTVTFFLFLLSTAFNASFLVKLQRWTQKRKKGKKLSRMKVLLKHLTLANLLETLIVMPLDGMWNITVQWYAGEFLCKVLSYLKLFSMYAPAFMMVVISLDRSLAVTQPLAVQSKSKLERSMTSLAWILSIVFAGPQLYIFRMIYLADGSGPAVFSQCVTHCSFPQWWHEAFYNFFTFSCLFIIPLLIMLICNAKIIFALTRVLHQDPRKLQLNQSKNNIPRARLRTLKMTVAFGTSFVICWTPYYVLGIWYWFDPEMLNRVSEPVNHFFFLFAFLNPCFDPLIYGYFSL
Description: Ten (10) μl of 3×10^4 M aqueous leuprolerin solution and 10 μl of 0.01 mg/ml lactoperoxidase were taken in a tube and 10 μl of Na^125 I solution (37 MBq) was added. After stirring, 10 μl of 0.001% H2 O2 was added and the reaction was conducted at room temperature for 20 minutes. Then, 700 μl of 0.05% TFA solution was added to the tube to terminate the reaction and the reaction mixture was purified by reverse-phase HPLC. The HPLC conditions are shown below. ^125 I-leuprolerin was eluted after a retention time of 26-27 minutes. (B) Preparation of a Rat Pituitary Anterior Lobe Membrane Fraction Containing GnRH Receptors […] The pituitary tissue was floated in 2 ml of the homogenate buffer and homogenized using a Polytron homogenizer. The homogenate was centrifuged at 700×G for 15 minutes. The supernatant was taken in an ultracentrifuge tube and centrifuged at 100,000×G for 1 hour to provide a membrane fraction pellet. […] The membrane fraction recovered as a pellet was resuspended in 10 ml of assay buffer, divided into portions, preserved at -80° C. and thawed when needed. […] For the rat and human membrane fractions prepared in (B) and (D), each membrane fraction was diluted with assay buffer to a concentration of 200 μg/ml and distributed in 188 μl portions into tubes. As to the bovine membrane fraction prepared in (C), the membrane fraction was diluted with assay buffer to 750 μg/ml and distributed in 188 μl portions into tubes. […] Where the rat or bovine pituitary anterior lobe membrane fraction was used, the reaction was conducted at 4° C. for 90 minutes. Where the membrane fraction of the CHO with human GnRH receptors expressed was used, the reaction was carried out at 25° C. for 60 minutes. […] After filtration, the radioactivity of ^125 I-leuprolerin remaining on the filter was measured with a γ-counter. The expression (TB-SB)/(TB-NSB)×100 (where SB=radioactivity with the compound added, TB=maximum bound radioactivity, NSB=nonspecifically bound radioactivity) was calculated to find the binding inhibition rate of each test compound.

Fc1ccccc1CNCCCC1(c2ccccc2)COCc2ccccc21 (centres unmarked) [Example I-19, 4-[3-(o-Fluorobenzylamino)propyl]-4-phenylisochroman hydrochloride]
IC50 [1]: 1.05 µM

c1ccc(N2CCN(CCCC3(c4ccccc4)CNCc4ccccc43)CC2)cc1 (centres unmarked) [III-8, 1,2,3,4-Tetrahydro-4-phenyl-4-[3-(4-phenylpiperazin-1-yl)propyl]isoquinoline trihydrochloride]
IC50 [1]: 1.63 µM | IC50 [2]: 0.16 µM

COc1cc2c(cc1OC)CC1(CCCCN1CCCC1(c3ccc(F)cc3)COCc3ccccc31)CC2 (centres unmarked) [Example I-50, 3,4-Dihydro-6,7-dimethoxy-1'-{3-[4-(p-fluorophenyl)isochroman-4-yl]propyl}spiro[naphthalene-2(1H),2'-piperidine] hydrochloride]
IC50 [3]: 8 µM | IC50 [4]: 0.08 µM

C1=NCC(CCCN2CCN(c3ccccc3)CC2)(c2ccccc2)c2ccccc21 (centres unmarked) [II-8, 4-Phenyl-4-[3-(4-phenylpiperazin-1-yl)propyl]isoquinoline]
IC50 [1]: 1.84 µM | IC50 [2]: 0.41 µM

c1ccc(C2(CCCNCc3ccccn3)COCc3ccccc32)cc1 (centres unmarked) [Example I-23, 4-[3-(2-Picolylamino)propyl]-4-phenylisochroman dihydrochloride]
IC50 [1]: 0.5 µM

c1ccc(N2CCN(CCC3(c4ccccc4)COCc4ccccc43)CC2)cc1 (centres unmarked) [Example I-6, 4-[2-(4-Phenylpiperazin-1-yl)ethyl]-4-phenylisochroman dihydrochloride]
IC50 [1]: 0.32 µM | IC50 [2]: 1 µM

CN(CCCC1(c2ccccc2)CNCc2ccccc21)Cc1ccccc1 (centres unmarked) [III-7, 4-[3-(N-Benzyl-N-methyl)aminopropyl]-1,2,3,4-tetrahydro-4-phenylisoquinoline dihydrochloride]
IC50 [1]: 1.77 µM | IC50 [2]: 0.2 µM

Fc1ccc(N2CCN(CCCC3(c4ccccc4)CNCc4ccccc43)CC2)cc1 (centres unmarked) [III-9, 4-{3-[4-(p-fluorophenyl)piperazin-1-yl]propyl}-1,2,3,4-tetrahydro-4-phenylisoquinoline dihydrochloride]
IC50 [1]: 1.44 µM | IC50 [2]: 0.17 µM

c1ccc(C2(CCCN3CCCCCC3)COCc3ccccc32)cc1 (centres unmarked) [Example I-15, 4-[3-(1-Hexamethyleneimino)propyl]-4-phenylisochroman hydrochloride]
IC50 [1]: 1.25 µM

CN1Cc2ccccc2C(CCCN2CCN(c3ccccc3)CC2)(c2ccccc2)C1 (centres unmarked) [IV-7, 1,2,3,4-Tetrahydro-2-methyl-4-phenyl-4-[3-(4-phenylpiperazin-1-yl)propyl]isoquinoline trihydrochloride]
IC50 [1]: 1.71 µM | IC50 [2]: 0.18 µM

CN1Cc2ccccc2C(CCCN2CCC(c3ccccc3)CC2)(c2ccc(Cl)cc2)C1 (centres unmarked) [IV-13, 4-(p-Chlorophenyl)-2-methyl-4-[3-(4-phenylpiperidino)propyl]-1,2,3,4-tetrahydroisoquinoline trihydrochloride]
IC50 [1]: 0.32 µM | IC50 [2]: 0.13 µM

Clc1ccc(C2(CCCN3CCN(c4ccccc4)CC3)CN=Cc3ccccc32)cc1 (centres unmarked) [II-13, 4-(p-Chlorophenyl)-3,4-dihydro-4-[3-(4-phenylpiperazino)propyl]isoquinolinetrihydrochloride]
IC50 [1]: 1.29 µM | IC50 [2]: 0.14 µM

CN(CCCC1(c2ccccc2)CN=Cc2ccccc21)Cc1ccccc1 (centres unmarked) [II-7, 4-[3-(N-Benzyl-N-methyl)aminopropyl]-3,4-dihydro-4-phenylisoquinoline dihydrochloride]
IC50 [1]: 0.46 µM | IC50 [2]: 0.88 µM

c1ccc(CNCCCC2(c3ccccc3)COCc3ccccc32)cc1 (centres unmarked) [Example I-18, 4-[3-(Benzylamino)propyl]-4-phenylisochroman hydrochloride]
IC50 [1]: 1.32 µM | IC50 [2]: 0.8 µM

Clc1ccccc1CNCCCC1(c2ccccc2)COCc2ccccc21 (centres unmarked) [Example I-20, 4-[3-(o-Chlorobenzylamino)propyl]-4-phenylisochroman hydrochloride]
IC50 [1]: 0.94 µM
